Converted amounts (≈) assume the structure as drawn. Like-named read-outs stand apart in the source and are kept apart here.
Legend:
[1] = test system: Fusarium graminearum; type: in vivo; details: spray on flowering Triticum aestivum cv. Samson, inoculated 24 hours after treatment, evaluated 14 days later
[2] = test system: Sphaerotheca fuliginea; assay: Foliar protection for cucumber powdery mildew control; type: in vivo; details: foliar spray on Cucumis sativus cv. Straight Eight, inoculated 24 hours after treatment, evaluated 7 days later
Summary of the method: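 Protective foliar spray on 10-day-old Straight Eight cucumbers, with S. fuliginea spores dusted from infected stock plants 24 h after treatment. Disease developed at 23–27 °C, 60% RH and a 16 h photoperiod. Leaves were rated for mildew growth after 7 days; test rates 10 ppm or below.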

[3] = test system: Phakopsora pachyrhizi; assay: Foliar protection test for Asian soybean rust control; type: in vivo; details: foliar application to soybean (Glycine max AG4832), percent disease area evaluated 14 days later
[4] = test system: Blumeria graminis f. sp. hordei; assay: Foliar protection test for barley powdery mildew control; type: in vivo; details: foliar spray on Hordeum vulgare cv. Perry, inoculated 24 hours after treatment, evaluated 7 days later
Summary of the method: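 Protective foliar test: compound atomized onto both leaf surfaces of 6-day-old Hordeum vulgare cv. Perry, followed after 24 h by spore-cloud inoculation from colonized untreated plants. Disease rated on leaves 7 days on, plants held at 20 to 22° C and 70% RH.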

[5] = test system: Rhizoctonia solani (Rs); assay: In vitro pathogen growth inhibition assay, Rs (mycelial plugs); type: cell-based; details: Rhizoctonia solani, 48 h, mycelial plugs
Summary of the method: (§1)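 Spores of Dm, Fv and Pc were diluted in 17% V8 liquid medium; Rs used 1.5 mm mycelial plugs in ¼ PDB. Compounds from 2.5 mg/ml DMSO stocks were combined with inoculum, growth was read by OD600 at 24 and 48 h with blank subtraction, and the reported value is the concentration giving ≥90% inhibition.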

[6] = test system: Septoria tritici (St); assay: In vitro pathogen growth inhibition assay, St; type: cell-based; details: for IC90: Zymoseptoria tritici, 48 h
Summary of the method: (§2)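 Value reported is the compound concentration reaching ≥90% growth inhibition, from OD readings at 24 and 48 h after blank subtraction, confirmed visually. Inoculum was spores diluted in 17% V8 medium, except Rs, using 1.5 mm mycelial plugs in ¼ PDB; actual compound concentration corrected via OD600.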

[7] = test system: Diplodia maydis (Dm); assay: In vitro pathogen growth inhibition assay, Dm; type: cell-based; details: Stenocarpella maydis, 48 h
Summary of the method: as §1

[8] = test system: Collectotrichum graminicola (Cg); assay: In vitro pathogen growth inhibition assay, Cg; type: cell-based; details: 48 h
Summary of the method: as §2

[9] = test system: Phytophthora capsici (Pc); assay: In vitro pathogen growth inhibition assay, Pc; type: cell-based; details: 48 h
Summary of the method: as §1

[10] = test system: Puccinia triticina; assay: Foliar protection test for wheat leaf rust control; type: in vivo; details: foliar application to wheat (Triticum aestivum cv. Winterhawk), evaluated 10 days later
[11] = test system: Fusarium virguliforme (Fv); assay: In vitro pathogen growth inhibition assay, Fv; type: cell-based
Summary of the method: as §1

[12] = test system: Blumeria graminis f. sp. hordei; assay: Early foliar disease control via seed treatment (barley powdery mildew); type: in vivo; details: seed treatment rate 0.025 mg/seed; barley inoculated 7 days after planting, evaluated 7 days later
Experimental: Barley seeds (Hordeum vulgare cv. Perry or Conlon) were treated with a test compound dissolved in pure acetone, in which the acetone solution (1 mL) was used per 50 seeds in glass jars in a fume hood. The seeds were swirled in the glass jars by hand until no obvious presence of acetone remained and the seeds were mostly dry. Plants were grown for 7 days in 2-inch square pots containing Metromix 200 medium amended with fertilizer. […] After inoculation with the pathogen of Blumeria graminis f. sp. hordei, plants were kept at conditions of 20 to 22° C., 200 uM of light, 70% humidity to facilitate infection and disease development. At 7 days after planting (1st true leaf fully expanded), the plants were moved to the cooler chamber and inoculated by shaking well-colonized, untreated stock plants above the treated material. […] Efficacy was evaluated in 7 days later by examining leaves for colonization and growth of powdery mildew. Each side of each leaf was assigned a severity rating of 0, 1, 5, 10, 25, 50, 75, or 100 percent diseased area. Table 14 lists the results of barley powdery mildew control upon seed treatment with test compounds.

[13] = test system: Mycosphaerella graminicola (synthetic Septoria tritici); assay: Foliar protection test for wheat septoria leaf blotch control; type: in vivo; details: foliar spray on Triticum aestivum cv. WinterHawk, inoculated 1 hour after treatment, evaluated 16 days later
[14] = test system: Botrtyis cinerea (Bc); assay: In vitro pathogen growth inhibition assay, Bc; type: cell-based; details: 48 h
Summary of the method: as §2

[15] = test system: Fusarium moniliforme (Fm); assay: In vitro pathogen growth inhibition assay, Fm; type: cell-based; details: Fusarium verticillioides
Summary of the method: as §2

[16] = test system: Fusarium graminearum; type: in vivo; details: corn from treated seeds, 0.025 mg/seed, F. graminearum inoculated
[17] = test system: Rhizoctonia solani; assay: Seed protectant for soybean seedling disease, R. solani; type: in vivo; details: soybean from treated seeds, 0.025 mg/seed, R. solani inoculated
Experimental: (§3) The pathogen of Rhizoctonia solani inoculum was grown on sterile sorghum; and the pathogen of Pythium ultimum inoculum was grown on white millet.
(§4) Soybean seeds (Glycine max cv. AG4832) were planted in 2.5-inch square pots containing Berger BM2 germination mix amended with fertilizer (e.g., 14-14-14). Pots with soil were inoculated with the pathogen of R. solani or P. ultimum at time of planting. A hole was pressed into the soil to a depth of about 2 to 3 cm; the inoculum was added to the hole, followed by the seed which was then covered with soil. Two seeds per pot were planted. Plants were grown in a growth chamber at conditions of 20 to 24° C., 14 hour light cycle, 500 uM of light, and 65% humidity. The pots inoculated with P. ultimum were sub-irrigated every day; and the pots inoculated with R. solani were sub-irrigated every other day.
(§5) Seedling emergence was captured at 7 and 14 days after seeding. At 14 days, the top of the plant was removed and fresh weight was recorded. The plant weights from the seeds treated with test compounds (e.g., in formulations) were compared to the ones either from the inoculated non-treated seeds or non-inoculated non-treated seeds. Table 10 lists the results of the R. solani control in soybean upon seed treatment with test compounds, and Table 11 lists the results of the P. ultimum control in soybean upon seed treatment with test compounds, respectively.

[18] = test system: Pythium ultimum; assay: Seed protectant for soybean seedling disease, P. ultimum; type: in vivo; details: soybean from treated seeds, 0.025 mg/seed, P. ultimum inoculated
Experimental: as §3, §4, §5

[19] = ≥90% growth inhibition, 48 hours, vs 2% DMSO control, read-out: Compound Concentration (ppm) sufficient for ≥90% inhibition of Rs
[20] = percentage of non-inoculated non-treated controls
[21] = ≥90% growth inhibition, 48 hours, vs 2% DMSO control, read-out: Compound Concentration (ppm) sufficient for ≥90% inhibition of Fv
[22] = ≥90% growth inhibition, 48 hours, vs 2% DMSO control, read-out: Compound Concentration (ppm) sufficient for ≥90% inhibition of Fm

SMILES | Wheat Fusarium Head Blight Control at a compound concentration of 25 ppm or lower [1] | Cucumber Powdery Mildew Control at a compound concentration of 10 ppm or lower [2] | Asian Soybean Rust Control at a compound concentration of 25 ppm or lower [3] | Barley Powdery Mildew Control at a compound concentration of 10 ppm or lower [4] | Wheat Leaf Rust Control at a compound concentration of 10 ppm or lower [10] | Barley Powdery Mildew Reduction (%) [12] [%] | Septoria Leaf Blotch Control at a compound concentration of 25 ppm or lower [13] | Plant Height ([16]; Table 12) [cm] | IC90 [5, 19] [µg/mL] | IC90 [11, 21] [µg/mL] | IC90 [15, 22] [µg/mL] | also measured
COc1ccc(F)cc1[C@H](Cn1c(=O)n(C(C)(C)C(=O)NC(C)C)c(=O)c2c(C)c(-n3nccn3)sc21)OC(C)C [Compound I-020, (R)-2-(1-(2-(5-fluoro-2-methoxyphenyl)-2-isopropoxyethyl)-5-methyl-2,4-dioxo-6-(2H-1,2,3-triazol-2-yl)-1,4-dihydrothieno[2,3-d]pyrimidin-3 (2H)-yl)-N-isopropyl-2-methylpropanamide] | B (from 50 to 69% control of wheat fusarium head blight) | AA (≥85% control of cucumber powdery mildew) | B (from 50 to 69% control of Asian soybean rust) | AA (≥85% control of barley powdery mildew) | B (from 50 to 69% control of wheat leaf rust) | 91 | B (from 50 to 69% control of wheat septoria leaf blotch) | 40.53 |  |  |  | IC90 ([5]; ≥90% inhibition, 48 hours vs 2% DMSO control, read-out: Compound Concentration (ppm) sufficient for ≥90% inhibition of growth, Rs): 0.08 µg/mL (≈ 0.136 µM); IC90 ([6]; ≥90% inhibition, 48 hours vs 2% DMSO control, read-out: Compound Concentration (ppm) sufficient for ≥90% inhibition of growth, St): ≥ 2 µg/mL; IC90 ([7]; ≥90% inhibition, 48 hours vs 2% DMSO control, read-out: Compound Concentration (ppm) sufficient for ≥90% inhibition of growth, Dm): 0.08 µg/mL (≈ 0.136 µM); IC90 ([8]; ≥90% inhibition, 48 hours vs 2% DMSO control, read-out: Compound Concentration (ppm) sufficient for ≥90% inhibition of growth, Cg): 0.08 µg/mL (≈ 0.136 µM); IC90 ([9]; ≥90% inhibition, 48 hours vs 2% DMSO control, read-out: Compound Concentration (ppm) sufficient for ≥90% inhibition of growth, Pc): > 50 µg/mL; IC90 ([11]; ≥90% inhibition, 48 hours vs 2% DMSO control, read-out: Compound Concentration (ppm) sufficient for ≥90% inhibition of growth, Fv): 0.4 µg/mL (≈ 0.682 µM); IC90 ([14]; ≥90% inhibition, 48 hours vs 2% DMSO control, read-out: Compound Concentration (ppm) sufficient for ≥90% inhibition of growth, Bc): ≥ 0.08 µg/mL; IC90 ([15]; ≥90% inhibition, 48 hours vs 2% DMSO control, read-out: Compound Concentration (ppm) sufficient for ≥90% inhibition of growth, Fm): 0.08 µg/mL (≈ 0.136 µM)
CCOC(=O)c1sc2c(c1C)c(=O)n(C(C)(C)C(=O)NC(C)C)c(=O)n2C[C@H](OCCC#N)c1cc(F)ccc1OC [Compound I-181, (R)-ethyl-1-(2-(2-cyanoethoxy)-2-(5-fluoro-2-methoxyphenyl)ethyl)-3-(1-(isopropylamino)-2-methyl-1-oxopropan-2-yl)-5-methyl-2,4-dioxo-1,2,3,4-tetrahydrothieno[2,3-d]pyrimidine-6-carboxylate] | B (from 50 to 69% control of wheat fusarium head blight) | AA (≥85% control of cucumber powdery mildew) | B (from 50 to 69% control of Asian soybean rust) | AA (≥85% control of barley powdery mildew) | AA (≥85% control of wheat leaf rust) | 57 | B (from 50 to 69% control of wheat septoria leaf blotch) | 47.63 | 0.08 (≈ 0.133 µM) | 0.4 (≈ 0.664 µM) | 0.08 (≈ 0.133 µM) | Compound Concentration (ppm) sufficient for ≥90% inhibition of St ([6]; ≥90% growth inhibition, 48 hours, vs 2% DMSO control): ≥10.0 ppm; Plant Weight ([17]; fresh weight at 14 days): 3.16 g; Improvement in plant weight [17, 20]: 39.4%; Plant Weight ([18]; fresh weight at 14 days): 4.73 g; Improvement in plant weight [18, 20]: 76%
COc1ccc(F)cc1[C@H](Cn1c(=O)n([C@H](C)C(=O)NC(C)C)c(=O)c2c(C)c(-n3nccn3)sc21)OCC(C)(C)C#N [Compound I-253, (R)-2-(1-((R)-2-(2-cyano-2-methylpropoxy)-2-(5-fluoro-2-methoxyphenyl)ethyl)-5-methyl-2,4-dioxo-6-(2H-1,2,3-triazol-2-yl)-1,4-dihydrothieno[2,3-d]pyrimidin-3 (2H)-yl)-N-isopropylpropanamide] | B (from 50 to 69% control of wheat fusarium head blight) | AA (≥85% control of cucumber powdery mildew) | A (from 70% to 84% control of Asian soybean rust) | A (from 70% to 84% control of barley powdery mildew) | AA (≥85% control of wheat leaf rust) |  | AA (≥85% control of wheat septoria leaf blotch) |  | 0.08 (≈ 0.131 µM) | 0.4 (≈ 0.654 µM) | 0.08 (≈ 0.131 µM) | IC90 ([6]; ≥90% growth inhibition, 48 hours, vs 2% DMSO control, read-out: Compound Concentration (ppm) sufficient for ≥90% inhibition of St): ≥ 2 µg/mL; IC90 ([7]; ≥90% growth inhibition, 48 hours, vs 2% DMSO control, read-out: Compound Concentration (ppm) sufficient for ≥90% inhibition of Dm): 0.4 µg/mL (≈ 0.654 µM); IC90 ([8]; ≥90% growth inhibition, 48 hours, vs 2% DMSO control, read-out: Compound Concentration (ppm) sufficient for ≥90% inhibition of Cg): 0.4 µg/mL (≈ 0.654 µM); IC90 ([9]; ≥90% growth inhibition, 48 hours, vs 2% DMSO control, read-out: Compound Concentration (ppm) sufficient for ≥90% inhibition of Pc): ≥ 50 µg/mL; IC90 ([14]; ≥90% growth inhibition, 48 hours, vs 2% DMSO control, read-out: Compound Concentration (ppm) sufficient for ≥90% inhibition of Bc): 0.4 µg/mL (≈ 0.654 µM); Plant Height ([16]; Table 13): 37.81 cm

Source: patent US10941157B2, “Pesticidal compositions and uses thereof” (Gilead Apollo, LLC, priority 2015, dated 2021)
